{
  "source": "patent US11684599B2",
  "about": "“Very-long-chain polyunsaturated fatty acids, elovanoid hydroxylated derivatives, and methods of use” (Board of Supervisors of Louisiana State University and …, priority 2017, dated 2023)",
  "key": {"ARPE-19 cells under UOS": {"tested_on": "ARPE-19 cells under UOS", "assay": "Western blot of pro-survival and pro-apoptotic proteins in RPE cells under UOS", "assay_type": "cell-based, human", "settings": "for Sirtuin1 (SIRT1) expression: dose-dependent, 100-200 nM; for pro-apoptotic protein Bax / pro-apoptotic protein Bid / pro-apoptotic protein Bim: ARPE-19 cells under UOS; for SIRT1 expression: RPE under UOS; for Prohibitin (type-1) expression: concentration-dependent (100 and 250 nM)", "procedure": "ARPE19 cells at 75-80% confluence (72 h growth in DMEM/F12+10% FBS) in 6-well plates were serum-starved for 8 h before exposure. The serum-starved cells were treated with TNF-α (Sigma-Aldrich, St. Louis, Mo.) (10 ng/ml) and H2O2 (600 μM) to induce oxidative stress and challenged with increasing concentrations (50-500 nM) of VLC-PUFA (C32:6n3 and C34:6n3) simultaneously with oxidative stress for 16 h (apoptosis) and 6 h (Western-blot) before detection of apoptosis and harvesting for protein analysis. In some experiments, DHA at a concentration of 100 nM and 15-LOX-1 inhibitor PD146176 at a concentration of 1 μM was added to treat the RPE cells under stress. Cell extracts were made and protein concentrations adjusted by Bio-Rad (Hercules, Calif.) protein reagent and used for Western blot analysis.\nBcl-2 family proteins, SIRT1 and Proinhibitin (type-1), and Iduna proteins were analyze by Western blot analysis. In brief, 20-25 μg equivalents of each cell extracts were subject to electrophoresis on a 4-12% gel (Promega) at 125 V for 2 h. The proteins were transferred to nitrocellulose membrane by I-blot transfer apparatus. The membranes were subjected to treatment with primary antibodies specific for Bcl-2, Bcl-xL, Bax, Bid, Bim, SIRT1 and Prohibitin (type-1) (Santa Cruz Biotechnology) and Iduna antibody (Neuro-Mab Lab, UCLA, Los Angeles, Calif.) overnight at 4° C. and probed for 45 mins with secondary antibody, goat anti-mouse Ig:horseradish peroxidase, and horseradish peroxidase-conjugated anti-biotin antibody, and then proteins were evaluated by using an ECL kit (Amersham)."}, "[1]": {"tested_on": "rats with middle cerebral artery occlusion (MCAo)", "assay": "Ex vivo MRI (T2WI) lesion, core and penumbra volumes after MCAo", "assay_type": "in vivo, rat", "settings": "day 7, compared to CSF-treated group", "procedure": "Male Sprague-Dawley rats (Charles River Lab., Wilmington, Mass.) weighing 280-340 g were fasted overnight but allowed free access to water. Atropine sulfate (0.5 mg/kg, i.p.) was injected 10 mins before anesthesia. Anesthesia was induced with 3% isoflurane in a mixture of 70% nitrous oxide and 30% oxygen. All rats were orally intubated and mechanically ventilated. During ventilation, the animals were paralyzed with pancuronium bromide (0.6 mg/kg, i.p.). The catheters were implanted into the right femoral artery and vein for the blood sampling and infusion of drug. Serial analyses of arterial blood gases, plasma glucose, arterial blood pressure and heart beating rate were conducted before and during surgical procedure. Rectal (CMA/150 Temperature Controller, CMA/Microdialysis AB, Stockholm, Sweden) and cranial (temporalis muscle; Omega Engineering, Stamford, Conn.) temperatures were closely monitored before, during and after MCAo. Rectal temperature and body weight were monitored daily until sacrifice.\nRats underwent 2 h of right middle cerebral artery occlusion (MCAo) by an intraluminal-filament. In brief, the right common carotid artery (CCA) bifurcation was exposed through a midline neck incision and the occipital artery branches of the external carotid artery were isolated, ligated and dissected. After careful isolation of the internal carotid artery (ICA), a 3-0 monofilament coated with poly-L-lysine was advanced through the ICA to the MCA until mild resistance was felt. The neck incision was closed with a silk suture and the animals were then allowed to recover. After 2 h of MCAo, rats were re-anesthetized with the same anesthetic combination. Temperature probes were re-inserted, and intraluminal sutures were carefully removed. The animals given free access to food and water for 7 days.\nThirty minutes after suture removal, a brain infusion cannula was implanted into the right lateral ventricle for treatment administration in each rat. Rats were anesthetized with 3% isoflurane and were secured to a stereotaxic apparatus with skull leveled between bregma and lambda. A sterile stainless steel cannula (5-mm long) was implanted into the lateral ventricle using the stereotaxic coordinates (0.2 mm caudal to bregma, 2 mm lateral to midline, and 5 mm below the dura). Cannulas were removed after treatment was completed.\nElovanoids (ELV) as sodium salts (Na) or methyl esters (Me) were dissolved in artificial cerebral spinal fluid (CSF) and administered into right lateral ventricle 1 hour after 2 h of MCAo. The following ELVs were used: ELV-N32-Na, ELV-N32-Me, ELV-N34-Na and ELV-N34-Me (5 μg/[…]) or CSF (50 μl). All treatments were administered by a researcher blinded to the treatment groups. […]"}},
  "data": [
    {"molecule": "CC/C=C\\C[C@H](O)\\C=C/C=C/C=C/[C@H](O)C/C=C\\C/C=C\\CCCCCCCCCCCCC(=O)[O-].[Na+]", "note": "[ELV-N32-Na, sodium (14Z,17Z,20R,21E,23E,25Z,27S,29Z)-20,27-dihydroxydotriaconta-14,17,21,23,25,29-hexaenoate]", "values": [
      {"measurement": "Iduna expression", "setting": "ARPE-19 cells under UOS; 200 nM", "value": "enhanced Iduna expression"},
      {"measurement": "relative potency in upregulating SIRT1", "setting": "ARPE-19 cells under UOS; ELV-N32-Na versus ELV-N34-Na", "value": "more potent than ELV-N34-Na"},
      {"measurement": "anti-apoptotic protein Bcl-2", "setting": "ARPE-19 cells under UOS; RPE cells under UOS", "value": "enhanced the abundance"},
      {"measurement": "anti-apoptotic protein Bcl-xL", "setting": "ARPE-19 cells under UOS; RPE cells under UOS", "value": "enhanced the abundance"},
      {"measurement": "Sirtuin1 (SIRT1) expression", "setting": "ARPE-19 cells under UOS", "value": "upregulate"},
      {"measurement": "reduction of total lesion volume", "setting": "[1]", "value": 60, "unit": "%"}
    ]},
    {"molecule": "CC/C=C\\C[C@H](O)\\C=C/C=C/C=C/[C@H](O)C/C=C\\C/C=C\\CCCCCCCCCCCCCCC(=O)OC", "note": "[ELV-N34-Me, methyl (16Z,19Z,22R,23E,25E,27Z,29S,31Z)-22,29-dihydroxytetratriaconta-16,19,23,25,27,31-hexaenoate]", "values": [
      {"measurement": "reduction of total lesion volume", "setting": "[1]", "value": 91, "unit": "%"}
    ]},
    {"molecule": "CC/C=C\\C[C@H](O)\\C=C/C=C/C=C/[C@H](O)C/C=C\\C/C=C\\CCCCCCCCCCCCC(=O)OC", "note": "[ELV-N32-Me, methyl (14Z,17Z,20R,21E,23E,25Z,27S,29Z)-20,27-dihydroxydotriaconta-14,17,21,23,25,29-hexaenoate]", "values": [
      {"measurement": "reduction of total lesion volume", "setting": "[1]", "value": 56, "unit": "%"}
    ]},
    {"molecule": "CC/C=C\\C/C=C\\C/C=C\\C/C=C\\C/C=C\\C/C=C\\CCCCCCCCCCCCC(=O)O", "note": "[32:6n3, (14Z,17Z,20Z,23Z,26Z,29Z)-dotriaconta-14,17,20,23,26,29-hexaenoic acid]", "values": [
      {"measurement": "anti-apoptotic protein Bcl-2", "setting": "ARPE-19 cells under UOS; RPE cells under UOS", "value": "upregulate"},
      {"measurement": "anti-apoptotic protein Bcl-xL", "setting": "ARPE-19 cells under UOS; RPE cells under UOS", "value": "upregulate"},
      {"measurement": "pro-apoptotic protein Bax", "setting": "ARPE-19 cells under UOS; VLC-PUFA", "value": "down regulated"},
      {"measurement": "pro-apoptotic protein Bid", "setting": "ARPE-19 cells under UOS; VLC-PUFA", "value": "down regulated"},
      {"measurement": "pro-apoptotic protein Bim", "setting": "ARPE-19 cells under UOS; VLC-PUFA", "value": "down regulated"},
      {"measurement": "Iduna expression", "setting": "ARPE-19 cells under UOS; VLC-PUFA, RPE cells under UOS", "value": "upregulation"},
      {"measurement": "SIRT1 expression", "setting": "ARPE-19 cells under UOS; VLC-PUFA", "value": "upregulation"},
      {"measurement": "Prohibitin (type-1) expression", "setting": "ARPE-19 cells under UOS; VLC-PUFA", "value": "upregulation"}
    ]},
    {"molecule": "CC/C=C\\C[C@H](O)\\C=C/C=C/C=C/[C@H](O)C/C=C\\C/C=C\\CCCCCCCCCCCCCCC(=O)[O-].[Na+]", "note": "[ELV-N34-Na, sodium (16Z,19Z,22R,23E,25E,27Z,29S,31Z)-22,29-dihydroxytetratriaconta-16,19,23,25,27,31-hexaenoate]", "values": [
      {"measurement": "Iduna expression", "setting": "ARPE-19 cells under UOS; 200 nM", "value": "enhanced Iduna expression"},
      {"measurement": "anti-apoptotic protein Bcl-2", "setting": "ARPE-19 cells under UOS; RPE cells under UOS", "value": "enhanced the abundance"},
      {"measurement": "anti-apoptotic protein Bcl-xL", "setting": "ARPE-19 cells under UOS; RPE cells under UOS", "value": "enhanced the abundance"},
      {"measurement": "Sirtuin1 (SIRT1) expression", "setting": "ARPE-19 cells under UOS", "value": "upregulate"},
      {"measurement": "reduction of total lesion volume", "setting": "[1]", "value": 99, "unit": "%"}
    ]},
    {"molecule": "CC/C=C\\C/C=C\\C/C=C\\C/C=C\\C/C=C\\C/C=C\\CCCCCCCCCCCCCCC(=O)O", "note": "[34:6n3, (16Z,19Z,22Z,25Z,28Z,31Z)-tetratriaconta-16,19,22,25,28,31-hexaenoic acid]", "values": [
      {"measurement": "anti-apoptotic protein Bcl-2", "setting": "ARPE-19 cells under UOS; RPE cells under UOS", "value": "upregulate"},
      {"measurement": "anti-apoptotic protein Bcl-xL", "setting": "ARPE-19 cells under UOS; RPE cells under UOS", "value": "upregulate"},
      {"measurement": "pro-apoptotic protein Bax", "setting": "ARPE-19 cells under UOS; VLC-PUFA", "value": "down regulated"},
      {"measurement": "pro-apoptotic protein Bid", "setting": "ARPE-19 cells under UOS; VLC-PUFA", "value": "down regulated"},
      {"measurement": "pro-apoptotic protein Bim", "setting": "ARPE-19 cells under UOS; VLC-PUFA", "value": "down regulated"},
      {"measurement": "Iduna expression", "setting": "ARPE-19 cells under UOS; VLC-PUFA, RPE cells under UOS", "value": "upregulation"},
      {"measurement": "SIRT1 expression", "setting": "ARPE-19 cells under UOS; VLC-PUFA", "value": "upregulation"},
      {"measurement": "Prohibitin (type-1) expression", "setting": "ARPE-19 cells under UOS; VLC-PUFA", "value": "upregulation"}
    ]}
  ]
}
